Laboratory results from PMC12278462, “Site-selective arylations of nature-inspired flavonoids or steroidal phenols via C—H or O—H activation” (Journal of Enzyme Inhibition and Medicinal Chemistry, 2025).
Like-named read-outs stand apart in the source and are kept apart here.

Legend:
HeLa = experiment: MTT antiproliferative assay, HeLa; format: cell-based, human; conditions: 72 h; for IC50: read-out: calculated IC50 HeLa
Description: (§1) We evaluated the cytotoxic activity of the newly synthesised arylated compounds 13–17 by the MTT assay[37] on a panel of human adherent cancer cell lines. The panel included breast (MCF-7 and MDA MB-231) and cervical (HeLa, SiHa and C33A) cancer cell lines differing in receptorial or HPV status. Tumour selectivity was determined on the NIH/3T3 mouse fibroblast cell line.
(§2) Briefly, the panels of breast and cervical cancerous cell lines, differing by their receptorial and HPV status were used, precisely MCF-7 (ER, PR and HER2 positive) and MDA-MB-231 (TNBC) breast carcinoma and HeLa (HPV18+), SiHa (HPV16+), C33A (HPV-) cervical carcinoma cells. Non-cancerous NIH/3T3 mouse fibroblast cell line was used for selectivity study. MCF-7, MDA-MB-231, Hela and NIH/3T3 cell lines were purchased from ECACC (European Collection of Cell Cultures, Salisbury, UK), while SiHa and C33A from ATCC (American Tissue Culture Collection, LGC Standards GmbH, Wesel, Germany). Cells were maintained in Eagle's Minimum Essential Medium (EMEM, Capricorn Scientific GmbH, Ebsdorfergrund, Germany) supplemented with 10% heat-inactivated fetal bovine serum (FBS), 1% non-essential amino acids (NEAA), and 1% antibiotic-antimycotic mixture (penicillin–streptomycin). The cells were maintained at 37 °C in a humidified atmosphere containing 5% CO2.
(§3) For measurements cells were seeded for 96-well plates at a density of 5 000/well, except for C33A, which was seeded in 10 000cells for each well. After overnight standing cells were treated with 10 and 30 µM solutions for screening and increasing concentrations (0.1-30.0 µM) of the test compounds were used for concentration-response curves. After incubation for 72 hours under cell culturing condition 5 mg/ml MTT (3-(4,5-[…])-2,5-diphenyl-2H-tetrazolium bromide) solution was added for another 4 h. The precipitated formazan crystals were solubilized in DMSO and the absorbance was measured at 545 nm with a microplate reader (BMG Labtech, Ortenberg, Germany). Wells with untreated cells were utilized as control, and inhibition % were calculated by GraphPad Prism v 9.0 software (GraphPad Software, San Diego, CA, USA). If the growth-inhibition exceeded 70% at 30 µM concentration during the screening concentration-response curves were fitted and IC50 values were calculated by GraphPad Prism v 9.0. The experiments were performed with five parallel wells for each experimental condition and repeated at least twice.

17β-HSD1 = molecular target: T1, 17β-HSD1 (Homo sapiens, UniProt P14061); experiment: 17β-HSD1 enzymatic assay (E1 to E2, LC-MS/MS); format: biochemical; conditions: for inhibition at 10 µM / inhibition at 100 µM: read-out: 17β-HSD1 Inhibition (% ± SD)
T1 sequence (P14061 1-328): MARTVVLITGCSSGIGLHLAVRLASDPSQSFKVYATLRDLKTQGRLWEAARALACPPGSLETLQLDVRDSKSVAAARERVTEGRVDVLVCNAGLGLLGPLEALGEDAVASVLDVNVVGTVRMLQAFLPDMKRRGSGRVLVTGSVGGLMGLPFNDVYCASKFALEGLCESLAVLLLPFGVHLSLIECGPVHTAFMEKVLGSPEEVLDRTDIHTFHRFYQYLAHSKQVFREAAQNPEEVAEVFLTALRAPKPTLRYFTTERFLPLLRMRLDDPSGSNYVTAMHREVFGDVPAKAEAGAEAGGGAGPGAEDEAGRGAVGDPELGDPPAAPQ
Description: The bacterial homogenate of E. coli overexpressing HSD17B1 was previously prepared as described in references ^S2,S3, and stored in aliquots at -80 °C. Before conducting experiments, aliquots were quickly thawed and diluted twice with 100 mM sodium phosphate buffer (pH 6.5; #14457, #1411007, Kemika), then kept on ice. The enzymatic assay was performed as described in ^S3. Briefly, a 1 mL enzymatic reaction mixture was prepared in 2 mL microcentrifuge tubes with the following components: 10 µL of the test inhibitor dissolved in dimethyl sulfoxide (DMSO; #276855, Sigma Aldrich) or 10 µL of DMSO for control samples, 5 µL of 14 µM substrate estrone (E1; CAS 53-16-7; #E2300-000, Steraloids), 10 µL of 10 mM NADPH (#AE14, Carl Roth) prepared in 100 mM sodium phosphate buffer, and 965 µL of 100 mM sodium phosphate buffer (pH 6.5). The reaction mixture was mixed thoroughly before adding 10 µL of bacterial homogenate. Immediately after addition, the tubes were transferred to an Eppendorf thermoshaker (#5382000031, Eppendorf) and incubated at 37 °C for 10 minutes. To stop the reaction, 60 µL of 1.26 M ascorbic acid (#A92902, Sigma Aldrich) in methanol (#34966, Honeywell/Riedel-de Haen) /acetic acid (#1.00063, Merck) (99:1, v/v) was added. The samples were then immediately processed using solid-phase extraction (SPE). The assay was repeated in three independent experiments, with each experiment performed in technical duplicate.
The preparation of samples for liquid chromatography-tandem mass spectrometry (LC-MS/MS) involved SPE. Stock solutions of E1 and 17β-estradiol (E2; CAS: 50-28-2; #142406, Steraloids) were prepared gravimetrically and dissolved in methanol (#34966, Honeywell/Riedel-de Haen). A working calibrator solution containing both steroids was then prepared by mixing appropriate volumes of the stock solutions in methanol to achieve a final concentration of 1 µg/mL for each steroid. Eight-point calibration curves (excluding zero and blank) were prepared in 100 mM sodium phosphate buffer (pH 6.5). For each 1 mL reaction mixture or calibrator, 10 µL of 100 ng/mL internal standard solution containing [2,3,4-13C3]-17β-estradiol (#719552, Sigma Aldrich) was added. Samples were mixed thoroughly and incubated at room temperature for 15 minutes.
SPE was performed using Strata X 33 µm polymeric reversed-phase columns (30 mg/mL tubes; #8B-S100-TAK, Phenomenex). The procedure involved the following steps: column conditioning with 1 mL of methanol, column equilibration with 1 mL of H₂O (#1.15333, Supelco), sample loading (1 mL sample or calibrator), column washing with 1 mL of H₂O, column drying under high vacuum for 10 minutes, and finally elution with 1 mL of methanol directly into HPLC glass vials (#702713, Macherey-Nagel GmbH/Co). The eluted samples were stored at -20 °C until LC-MS/MS analysis.

MDA-MB-231 = experiment: MTT antiproliferative assay, MDA-MB-231; format: cell-based, human; conditions: for inhibition at 10 µM: MDA-MB-231, 10 µM; for inhibition at 30 µM: MDA-MB-231, 30 µM; for IC50: read-out: calculated IC50 MDA-MB-231
Description: as §1, §2, §3

[1] = tested on: NIH/3T3 mouse fibroblast cell line; experiment: MTT assay, tumour selectivity on non-cancerous fibroblasts; format: cell-based; conditions: for inhibition at 10 µM: NIH3T3, 10 µM; for inhibition at 30 µM: NIH3T3, 30 µM; for IC50: read-out: calculated IC50 NIH/3T3
Description: as §1, §2, §3

MCF-7 = experiment: MTT antiproliferative assay, MCF-7; format: cell-based, human; conditions: for inhibition at 10 µM: MCF7, 10 µM; for inhibition at 30 µM: MCF7, 30 µM; for IC50: read-out: calculated IC50 MCF-7
Description: as §1, §2, §3

C33A = experiment: MTT antiproliferative assay, C33A; format: cell-based, human; conditions: 72 h; for IC50: read-out: calculated IC50 C33A
Description: as §1, §2, §3

SiHa = experiment: MTT antiproliferative assay, SiHa; format: cell-based, human; conditions: 72 h; for IC50: read-out: calculated IC50 SiHa
Description: as §1, §2, §3

Row | Compound | inhibition at 10 µM (HeLa; Homo sapiens, HeLa) [%] | inhibition at 30 µM (HeLa; Homo sapiens, HeLa) [%] | inhibition at 10 µM (17β-HSD1; 10 µM test concentration) [%] | inhibition at 100 µM (17β-HSD1; 100 µM test concentration) [%] | inhibition at 10 µM (MDA-MB-231; Homo sapiens, 72 h) [%] | inhibition at 30 µM (MDA-MB-231; Homo sapiens, 72 h) [%] | inhibition at 10 µM ([1]; Mus musculus, 72 h) [%] | inhibition at 30 µM ([1]; Mus musculus, 72 h) [%] | inhibition at 10 µM (MCF-7; Homo sapiens, 72 h) [%] | inhibition at 30 µM (MCF-7; Homo sapiens, 72 h) [%] | inhibition at 10 µM (C33A; Homo sapiens, C-33-A) [%] | inhibition at 30 µM (C33A; Homo sapiens, C-33-A) [%] | inhibition at 10 µM (SiHa; Homo sapiens, SiHa) [%] | inhibition at 30 µM (SiHa; Homo sapiens, SiHa) [%] | other results
1 | C[C@@]12CC[C@@H]3c4c(cc(O)cc4-c4ccccc4)CC[C@H]3[C@@H]1CCC2=O [14a, 3-hydroxy-1-phenyl-13α-estra-1,3,5(10)-triene-17-one] | 16.1 | 43 | 36.1 ± 10.2 | 73.3 ± 7.5 | < 10 | < 10 | 13.5 | 22.5 | 13.1 | 15.4 | < 10 | 12.7 | < 10 | < 10 | 
2 | CN(C)C(=O)Oc1cc2c(c(-c3ccccc3)c1)[C@H]1CC[C@@]3(C)C(=O)CC[C@H]3[C@@H]1CC2 [13a, 3-(N,N-Dimethylcarbamoyloxy)-1-phenyl-13α-estra-1,3,5(10)-triene-17-one] | 30.9 | 59.9 |  |  | < 10 | 41 | 13.5 | 22.5 | 22.5 | 52.8 | < 10 | 27.2 | 13.7 | 41 | 17β-HSD1 Inhibition (% ± SD) (17β-HSD1; 10 µM test concentration): No inhibition; inhibition at 100 µM (17β-HSD1): 33.6 ± 14.9%
3 | C[C@@]12CC[C@@H]3c4c(cc(OCc5cn(Cc6ccccc6)nn5)cc4-c4ccc(Br)cc4)CC[C@H]3[C@@H]1CCC2=O [compound 16, 3-[{1-Benzyl-1H-1,2,3-triazol-4-yl}methoxy]-1-(4-bromophenyl)-13a-estra-1,3,5 (10)-trien-17-one] | 22.4 | 33.1 |  |  | < 10 | < 10 | < 10 | 11.2 | < 10 | < 10 | < 10 | < 10 | < 10 | 10.4 | 
4 | C[C@@]12CC[C@@H]3c4ccc(O)c(-c5ccccc5)c4CC[C@H]3[C@@H]1CCC2=O [4-Ph, reference compound] |  |  | 41.4 ± 0.2 | 52.1 ± 17.4 |  |  |  |  |  |  |  |  |  |  | 
5 | CCCCOC1(c2cc(=O)c3c(Oc4ccccc4)cc(O)cc3o2)C=CC(=O)C=C1 [17a, 2-(1-Butoxy-4-oxocyclohexa-2,5-dienyl)-7-hydroxy-5-phenoxy-chromen-4-one] | 93.6 | 94.3 |  |  | 95.7 | 96.9 | 94.2 | 98.7 | 93.1 | 93.7 | 98.1 | 98.5 | 86.2 | 95 | IC50 (HeLa; Homo sapiens, HeLa): 1160 nM; IC50 (MDA-MB-231; Homo sapiens, MDA-MB-231, 72 h): 720 nM; IC50 ([1]; Mus musculus, NIH3T3, 72 h): 2330 nM; IC50 (MCF-7; Homo sapiens, MCF7, 72 h): 970 nM; IC50 (C33A; Homo sapiens, C-33-A): 430 nM; IC50 (SiHa; Homo sapiens, SiHa): 1290 nM
6 | CCCCOC1(c2cc(=O)c3c(Oc4ccc(Br)cc4)cc(O)cc3o2)C=CC(=O)C=C1 [17b, 5-(4-Bromophenoxy)-2-(1-butoxy-4-oxocyclohexa-2,5-dienyl)-7-hydroxy-chromen-4-one] | 97 | 97.7 |  |  | 97 | 97.9 | 97.5 | 98.6 | 97.4 | 98.4 | 97.7 | 97.8 | 84.5 | 93.8 | IC50 (HeLa; Homo sapiens, HeLa): 1090 nM; IC50 (MDA-MB-231; Homo sapiens, MDA-MB-231, 72 h): 730 nM; IC50 ([1]; Mus musculus, NIH3T3, 72 h): 1610 nM; IC50 (MCF-7; Homo sapiens, MCF7, 72 h): 1150 nM; IC50 (C33A; Homo sapiens, C-33-A): 520 nM; IC50 (SiHa; Homo sapiens, SiHa): 1390 nM
7 | N.N.[Cl][Pt][Cl] [Cisplatin, reference compound] |  |  |  |  |  |  |  |  |  |  |  |  |  |  | IC50 (HeLa): 12400 nM; IC50 (MDA-MB-231; 72 h): 19100 nM; IC50 ([1]; 72 h): 4700 nM; IC50 (MCF-7; 72 h): 5800 nM; IC50 (C33A): 3700 nM; IC50 (SiHa): 7800 nM
8 | C[C@@]12CC[C@@H]3c4cc(-c5ccccc5)c(O)cc4CC[C@H]3[C@@H]1CCC2=O [2-Ph] |  |  | 54 ± 7.8 | 59.4 ± 7.8 |  |  |  |  |  |  |  |  |  |  | 
9 | C[C@]12CC[C@H]3C(=CCc4cc(O)ccc43)[C@@H]1CCC2=O [Equilin, reference compound] |  |  | 85.9 ± 1.6 |  |  |  |  |  |  |  |  |  |  |  | 
